These results are taken from PMC9112550, “Optimization of the antimicrobial peptide Bac7 by deep mutational scanning” (BMC Biology, 2022).

Assay [1] deals with E. coli ATCC 25922. Briefly: In vivo efficacy, murine septicemia model. The conditions noted are these: 30 mg kg^−1 IP once (1 h post-infection); 10 CD-1 mice; positive control. As to the method:
CD-1 mice (7 weeks old, 27–28 g female) were used (Charles River, France). These animals were housed for a week of acclimation period before the experiment in a protected area in the ‘Centre de Zootechnie de l’Université de Bourgogne’ (Biosafety level 2 facility) and fed ad libitum according to the current recommendations by the European Institute of Health. Housing took place in rooms where a 12-h/12 h light/dark cycle is applied, the temperature ranges from 18 to 21°C and the relative humidity from 45 to 65%. The animal facility is authorized by the French authorities (Agreement N° C 21 464 04 EA). […]
For animal experiments, Bac7PS was synthesized at Genscript as acetate salt and with a purity of 92%. […] First, the maximum tolerated dose (MTD) for the peptide was determined by testing different peptide doses in 8 groups with 5 animals per group. The peptide solution was administered once by intraperitoneal (IP) injection with a volume of between 94 and 240 μl (depending on the weight of the animal and the dosage) and the animals were monitored for 2 h following the injection, then 6 to 8 h later, and then once or twice a day, depending on the clinical status, up to 5 days post-injection. […] As endpoint, the wellbeing and survival rate, on a twice daily based evaluation for up to 3 days, was monitored.

Assay [2] relates to bacteria. The conditions noted are these: cited from earlier work. From the text: One of the most intensively researched proline-rich AMPs is bactenecin-7 (Bac7). It is a 60 amino acid long linear peptide that was first isolated from bovine neutrophils. […] Measuring the antimicrobial activity of heavily mutated variants was valuable to determine the sequence-activity relationship of Bac7_1-23 because (i) the activity of specific amino acid res ... || Bac7PS excelled over Bac7_1-23 in terms of antimicrobial activity against clinical isolates including MDR bacteria and a decreased dependency on the SbmA transporter (Fig. 4a; Table 2). […] We mainly attribute the activity gain to the increased ability to penetrate membranes, which was accompanied by a slight increase in membrane damage at higher concentrations compared to Bac7_1-23 (Fig. 4b; Additional file 1 ...

The test system of assay [3] is E. coli TOP10. Briefly: Deep mutational scanning, site-saturation Bac7_1-23 library, intracellular self-screening with NGS. The assay is classed as cell-based. Particulars: induction vs 4.5 h, n = 3, more negative = more antimicrobial. As to the method: A focused strategy was pursued to generate diversity at positions 5, 18, 19, and 20 in the Bac7_1-23 peptide. […] Degeneration was introduced by using the QuikChange technique, amplifying the pBAD plasmid containing the Bac7_1-23 gene using a mixture of 20 oligonucleotides (Additional file 1: Table S1) at a final concentration of 0.3 μM and Phusion® High-Fidelity PCR Master Mix in HF buffer. The amplification was performed using 20 cycles of 98°C for 10 s, 60°C for 15 s, and 72°C for 10 s. The PCR product was treated with the enzyme Dpn1 to remove the template plasmid and subsequently purified. The purified product was used to transform 20 μl of CloneCatcher™ Gold DH5G Electrocompetent E. coli (Genlantis, Burlington, USA) cells using electroporation.
To assess the antimicrobial activity of multiple peptides in parallel when expressed intracellularly in E. coli TOP10, previously prepared aliquots containing E. coli plasmid libraries created by either random mutagenesis or site-saturation mutagenesis were used. For both approaches, three aliquots containing approximately 500 million cells each of E. coli TOP10 harboring peptide-encoding DNA sequences on the pBAD plasmid were thawed and added to three 1-l baffled shake flasks containing 100 ml of LB medium + 100 μg ml^−1 carbenicillin. The cultures were grown for roughly 7 h at 37°C.

In the case of `O=C(O)c1cn(C2CC2)c2cc(N3CCNCC3)c(F)cc2c1=O` [ciprofloxacin], the survival entry in assay [1] is “survival of all mice”. For “Bac7_1-15: Bac7_1-15 (RRIRPRPPRLPRPRP; Bactenecin-7; UniProt P19661 131-145, looked up, fragment)”, the “antimicrobial activity” value in assay [2] is given as “loss of antimicrobial activity”. Consider “RRIRDRPPRLPRPRPRPIKDPRP [site-saturation library peptide ID 5521]”, for which the “lfcShrink4 (shrunken log2-fold change of abundance of peptide-encoding DNA)” value in assay [3] is -4.
